Experimental data published in patent US10653717B2, “Antibiotic compositions” (priority 2016, dated 2020).

Assays:
wild type E. coli DHB4 = assay: MIC of nine antibiotics and silver in combinations on E. coli DHB4; assay type: cell-based, Escherichia coli; conditions: 24 h
Protocol: E. coli DHB4 overnight cultures were diluted 1:1000 times in Luria Bertani (LB) medium, and treated with serial dilutions of ionic silver (Ag^+) as a nitrate salt and 9 antibiotics in combinations, separately, for 24 h.
E. coli DHB4 from frozen stock were grown overnight at 37° C., 400 rpm. The overnight culture was diluted 1:100 with 5 ml of LB medium in 15 ml tubes and incubated at 37° C. at 400 rpm. Cells were grown until an OD600 nm of 0.4 and were used for antibiotic treatment. Briefly, cells were diluted 1:1,000 into 100 μl of LB medium in 96 micro-well plates. […] The minimum inhibition concentration (MIC) was determined as the lowest concentration of drugs that inhibited 90% of growth compared to the untreated cells after 24 h culture at 37° C. The cultures treated with the same serial dilutions of 100 μl ebselen and silver nitrate were used as the positive control.

ECO-3: E. coli ZY-1 = assay: Drug sensitivity of clinical isolated strain; assay type: cell-based, Escherichia coli; also: key: R: resistant; S: sensitive
AB-2: A. baumannii 0361# = assay: Drug sensitivity of clinical isolated strain; assay type: cell-based, Acinetobacter baumannii; conditions: AB-2 (Table 3); also: key: R: resistant; S: sensitive
[1] = test system: KP-2: K. pneumonia subsp. pneumonia 0322#; assay: MIC of silver with antibiotics on clinical isolated MDR Gram-negative bacteria; assay type: cell-based, Klebsiella pneumonia; conditions: antibiotic 4 μM
Protocol: (§1) There are five clinically most difficult-to-treat MDR Gram-negative pathogen species: Klebsiella pneumonia, Acinetobacter baumannii, Pseudomonas aeruginosa, Enterobacter cloacae and Escherichia coli. One strain from each species was isolated, and overnight cultures were diluted 1:1000 times in LB medium, and treated with serial concentrations of Ag^+ and antibiotics in combinations for 24 h (Table 10).
(§2) Five clinical isolated MDR Gram-negative strains were grown until an OD600 nm of 0.4, and were diluted 1:1,000 into 100 μl LB medium in 96 micro-well plates. […] The cultures treated with the same serial dilutions of 100 μl ebselen and silver nitrate were used as the positive control.

ECO-2: E. coli 2219# = assay: Drug sensitivity of clinical isolated strain; assay type: cell-based, Escherichia coli; conditions: ECO-2 (Table 3); also: key: R: resistant; S: sensitive
[2] = test system: AB-1: Acinetobacter baumannii H#; assay: Drug sensitivity of clinical isolated strain; assay type: cell-based; also: key: R: resistant; S: sensitive
E. coli = assay: Degree of synergy, Bliss Independence Model; assay type: cell-based, Escherichia coli; conditions: 5 μM AgNO3 with 80 μM antibiotic; 1 and 4 h
[3] = test system: PA-1: Pseudomonas aeruginosa 1298#; assay: MIC of silver with antibiotics on clinical isolated MDR Gram-negative bacteria; assay type: cell-based; conditions: antibiotic 4 μM
Protocol: as §1, §2

[4] = test system: AB-1: Acinetobacter baumannii H#; assay: as above; assay type: cell-based; conditions: antibiotic 4 μM
Protocol: as §1, §2

[5] = test system: ECO-1: Escherichia coli 1139#; assay: as above; assay type: cell-based; conditions: antibiotic 4 μM
Protocol: as §1, §2

[6] = test system: PA-2: P. aeruginose 0009#; assay: Drug sensitivity of clinical isolated strain; assay type: cell-based, Pseudomonas aeruginosa; conditions: PA-2 (Table 3); also: key: R: resistant; S: sensitive
[7] = test system: ECO-1: Escherichia coli 1139#; assay: Drug sensitivity of clinical isolated strain; assay type: cell-based; also: key: R: resistant; S: sensitive
[8] = test system: PA-1: Pseudomonas aeruginose 1298#; assay: Drug sensitivity of clinical isolated strain; assay type: cell-based, Pseudomonas aeruginosa; also: key: R: resistant; S: sensitive
[9] = test system: ECL-1: Enterobacter cloacae 0431#; assay: Drug sensitivity of clinical isolated strain; assay type: cell-based; conditions: ECL-1 (Table 3); also: key: R: resistant; S: sensitive
ECL-2: E. cloacae 2301# [10] = assay: MIC of silver with antibiotics on clinical isolated MDR Gram-negative bacteria; assay type: cell-based, Enterobacter cloacae; conditions: antibiotic 4 μM
Protocol: as §1, §2

[11] = test system: KP-2: K. pneumonia subsp. pneumonia 0322#; assay: Drug sensitivity of clinical isolated strain; assay type: cell-based, Klebsiella pneumonia; also: key: R: resistant; S: sensitive
[12] = test system: KP-1: Klebsiella pneumonia subsp. pneumonia 13#; assay: Drug sensitivity of clinical isolated strain; assay type: cell-based; conditions: KP-1 (Table 3); also: key: R: resistant; S: sensitive
GSH = GSH amount in treated E. coli cell extracts, GR-coupled DTNB reduction; assay type: cell-based, Escherichia coli; conditions: 5 μM Ag^+ and 80 μM antibiotic; 10 min; compared with antibiotics themselves
ECL-2: E. cloacae 2301# [13] = assay: Drug sensitivity of clinical isolated strain; assay type: cell-based, Enterobacter cloacae; also: key: R: resistant; S: sensitive

For Gentamicin, the “Antibacterial effect as MIC of antibiotic and silver” value (“Antibacterial effect as MIC” below) (wild type E. coli DHB4; listed as head Silver (μM) 0) was 40 µM, the “Antibacterial effect as MIC” value (wild type E. coli DHB4; listed as head Silver (μM) 1) was 20 µM and the “Antibacterial effect as MIC” value (wild type E. coli DHB4; listed as head Silver (μM) 2) was 2.5 µM. The “Antibacterial effect as MIC” value (wild type E. coli DHB4; listed as head Silver (μM) 4) was 1.25 µM, the “activity with silver on E. coli DHB4 growth” value (wild type E. coli DHB4; serial dilutions of Ag^+ and antibiotic) was “synergistic activity” and the Drug sensitivity (ECO-3: E. coli ZY-1; E. coli ZY-1 (Table 7)) was “S”. The Drug sensitivity (ECO-3: E. coli ZY-1; ECO-3 (Table 3)) was “S”, the Drug sensitivity (AB-2: A. baumannii 0361#) was “R” and the “MIC of silver in the presence of different antibiotics” value (shortened to “MIC … of different antibiotics”) [1] was 160 µM. The Drug sensitivity (ECO-2: E. coli 2219#) was “R”, the Drug sensitivity ([2]; AB-1 (Table 3)) was “R” and the Drug sensitivity ([2]; AB-1 (table of Example 3)) was “R”. For the same substance, the “degree of synergy with Ag^+ (Bliss model)” value (E. coli) was “synergistic combinations”, the “MIC … of different antibiotics” value [3] was 40 µM and the “MIC … of different antibiotics” value [4] was 80 µM. The “MIC … of different antibiotics” value [5] was 40 µM, the Drug sensitivity [6] was “R” and the Drug sensitivity ([7]; ECO-1 (Table 3)) was “S”. The Drug sensitivity ([7]; ECO-1 (table of Example 3)) was “S”, the Drug sensitivity ([8]; PA-1 (Table 3)) was “S” and the Drug sensitivity ([8]; PA-1 (table of Example 3)) was “S”. For the same substance, the Drug sensitivity [9] was “R”, the “MIC … of different antibiotics” value (ECL-2: E. cloacae 2301# [10]) was 160 µM and the Drug sensitivity ([11]; KP-2 (Table 3)) was “R”. The Drug sensitivity ([11]; KP-2 (table of Example 3)) was “R”, the Drug sensitivity [12] was “R” and the “total GSH amount in cell extracts” value (GSH) was “slightly deplete”. The Drug sensitivity (ECL-2: E. cloacae 2301# [13]; ECL-2 (Table 3)) was “R” and the Drug sensitivity (ECL-2: E. cloacae 2301# [13]; ECL-2 (table of Example 3)) was “R”.
